Data on 1 compound can be found in article PMC8584989 (International Journal of Molecular Sciences, 2021).

In data set [1] the target is T1, CYP2D6 (Homo sapiens, UniProt P10635).
T1 construct: purchased Thermo Fisher Scientific
Put plainly: Vivid CYP450 Screening Kit, recombinant CYP2D6. The data set is classed as in vitro ADME. As for the experimental part:
(§1) CYP inhibitory assay was performed using Vivid CYP450 screening kit as described previously. The kits consist of microsomal fraction containing human CYP isoforms, human CYP reductase and in several cases cytochrome b5. Experiments were performed following the manufacturer’s protocol on black 96-well plates using kinetic mode. […] Then, the master mix (CYP isoenzyme with an NADPH regeneration system in buffer) was added in each well and plate was pre-incubated for 10 min. The reaction was started with the mixture of NADP^+ and Vivid substrate and the fluorescence of samples was measured in 1 min interval for 60 min using an Infinite M200 Pro microplate reader (Tecan, Männedorf, Switzerland). Data from linear phase (15 min) were used for data evaluation.

Data set [2] deals with T2, CYP3A5 (Homo sapiens, UniProt P20815).
T2 construct: purchased Thermo Fisher Scientific
Put plainly: Vivid CYP450 Screening Kit, recombinant CYP3A5. The data set is classed as in vitro ADME. As for the experimental part: as §1

Data set [3] concerns the target T3, CYP2B6 (Homo sapiens, UniProt P20813).
T3 construct: purchased Thermo Fisher Scientific
Put plainly: Vivid CYP450 Screening Kit, recombinant CYP2B6. The data set is classed as in vitro ADME. Conditions: recombinant enzyme; read-out: CYP2B6 inhibition IC50. As for the experimental part:
as §1

Data set [4] deals with T4, CYP2C8 (Homo sapiens, UniProt P10632).
T4 construct: purchased Thermo Fisher Scientific
Put plainly: Vivid CYP450 Screening Kit, recombinant CYP2C8. Conditions: recombinant enzyme; read-out: CYP2C8 inhibition IC50. The data set is classed as in vitro ADME. As for the experimental part:
as §1

Data set [5] addresses T5, CYP2C9 (Homo sapiens, UniProt P11712).
T5 construct: purchased Thermo Fisher Scientific
Kind of data set: Vivid CYP450 Screening Kit, recombinant CYP2C9. The data set is classed as in vitro ADME. Conditions: recombinant enzyme; read-out: CYP2C9 inhibition IC50. As for the experimental part: as §1

The test system of data set [6] is HL60-ABCC1 cells. Kind of data set: XTT proliferation assay (comparative viability). Conditions: single drug, 48 h. The data set is classed as cell-based. As for the experimental part: These colorimetric assays were used in various studies presented in this paper (prior induction studies, MDR reversal experiments and comparative viability assays) and were performed as reported previously. […] In MTT experiments, cells were seeded on a 96-well culture plate at densities (in number of cells/well) of 1.3 × 10^4 for MDCKII-par, MDCKII-ABCB1 and MDCKII-ABCG2; 1.2 × 10^4 for A431-par, A431-ABCB1, A431-ABCG2 and A431-ABCC1; 1.2 × 10^4 for NCI-H1299; 1.0 × 10^4 for A459; 2.0 × 10^4 for Caco-2; 5.0 × 10^4 for LS174T; and 1.0 × 10^4 for primary NSCLC explants. On the other hand, for XTT cells were seeded with densities 2.0 × 10^4 for HL60-par, HL60-ABCB1, HL60-ABCG2 and HL60-ABCC1 cells/well on 96-well plates. […] Following 48 h incubation with drugs, Opti-MEM solutions of MTT or XTT (1 mg/mL) with phenazine methosulfate solution (7.50 μg/mL; only for XTT) was added and the cells were incubated for 1 h with the exception of HL60s that were incubated for 5 h.

The nature of data set [7]: MTT proliferation / drug combination assay. Conditions: human.
The target in data set [8] is T6, CYP2C19 (Homo sapiens, UniProt P33261).
T6 construct: purchased Thermo Fisher Scientific
Kind of data set: Vivid CYP450 Screening Kit, recombinant CYP2C19. The data set is classed as in vitro ADME. Conditions: recombinant enzyme; read-out: CYP2C19 inhibition IC50. As for the experimental part:
as §1

Data set [9] has as its system CYP3A4. Conditions: DI study in healthy subjects; cited from earlier work.
The target in data set [10] is T7, CYP1A2 (Homo sapiens, UniProt P05177).
T7 construct: purchased Thermo Fisher Scientific
Kind of data set: Vivid CYP450 Screening Kit, recombinant CYP1A2. The data set is classed as in vitro ADME. As for the experimental part: as §1

Data set [11] addresses T8, ABCG2 (Homo sapiens, UniProt Q9UNQ0).
T8 sequence (Q9UNQ0 1-655): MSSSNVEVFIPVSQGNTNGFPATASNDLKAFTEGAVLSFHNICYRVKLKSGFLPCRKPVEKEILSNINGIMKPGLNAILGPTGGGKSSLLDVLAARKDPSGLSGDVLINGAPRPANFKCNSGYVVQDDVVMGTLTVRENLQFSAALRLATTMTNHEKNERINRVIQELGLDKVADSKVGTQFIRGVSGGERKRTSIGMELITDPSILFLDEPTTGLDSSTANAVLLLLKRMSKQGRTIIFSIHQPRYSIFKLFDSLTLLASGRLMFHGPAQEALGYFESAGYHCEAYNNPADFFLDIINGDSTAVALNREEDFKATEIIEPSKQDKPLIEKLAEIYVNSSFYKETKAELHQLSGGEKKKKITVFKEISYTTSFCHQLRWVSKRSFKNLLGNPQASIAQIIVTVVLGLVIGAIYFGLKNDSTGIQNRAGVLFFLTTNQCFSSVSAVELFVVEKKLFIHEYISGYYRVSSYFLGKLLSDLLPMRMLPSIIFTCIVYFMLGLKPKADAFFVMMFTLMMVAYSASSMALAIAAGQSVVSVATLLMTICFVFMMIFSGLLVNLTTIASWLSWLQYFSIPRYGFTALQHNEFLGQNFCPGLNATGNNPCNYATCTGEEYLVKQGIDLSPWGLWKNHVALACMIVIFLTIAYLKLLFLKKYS
Kind of data set: Inhibitory accumulation assay in MDCKII-ABCG2 cells. The data set is classed as cell-based. As for the experimental part:
Accumulation assays were performed as described previously. […] The daunorubicin and mitoxantrone accumulation assays were performed in above mentioned cell lines and were also adopted to primary NSCLC cultures. […] Cells were incubated up to 70-80% confluence for approximately 24 h. […] The cells there trypsinized on ice, resuspended with 2% FBS in cold PBS solution and then fluorescence was detected using flow cytometer (BD FACSCanto II, Allschwil, Switzerland). […] For data presentation, the ratios of relative fluorescence units (RFUs) from treated samples to RFUs from vehicle-treated (control) cells were computed generating “relative substrate accumulation”.

Data set [12] can be described thus: XTT proliferation / drug combination assay. Conditions: human.

Like-named read-outs stand apart in the source and are kept apart here.

T3 sequence (P20813 whole entry): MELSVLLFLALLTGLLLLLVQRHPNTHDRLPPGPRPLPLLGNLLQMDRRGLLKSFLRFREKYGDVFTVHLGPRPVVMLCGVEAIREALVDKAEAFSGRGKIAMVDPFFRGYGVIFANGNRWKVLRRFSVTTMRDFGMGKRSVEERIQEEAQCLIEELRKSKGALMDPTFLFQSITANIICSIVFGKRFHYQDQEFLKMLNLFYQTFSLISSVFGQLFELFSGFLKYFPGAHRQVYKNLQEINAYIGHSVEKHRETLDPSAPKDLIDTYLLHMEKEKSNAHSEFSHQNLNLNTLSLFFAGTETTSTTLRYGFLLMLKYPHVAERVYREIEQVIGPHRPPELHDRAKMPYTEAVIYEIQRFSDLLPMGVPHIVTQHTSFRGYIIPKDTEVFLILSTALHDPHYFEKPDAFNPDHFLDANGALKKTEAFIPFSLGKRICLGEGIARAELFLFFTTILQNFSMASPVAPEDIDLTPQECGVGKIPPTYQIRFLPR
T7 sequence (P05177 2-516 limits assumed): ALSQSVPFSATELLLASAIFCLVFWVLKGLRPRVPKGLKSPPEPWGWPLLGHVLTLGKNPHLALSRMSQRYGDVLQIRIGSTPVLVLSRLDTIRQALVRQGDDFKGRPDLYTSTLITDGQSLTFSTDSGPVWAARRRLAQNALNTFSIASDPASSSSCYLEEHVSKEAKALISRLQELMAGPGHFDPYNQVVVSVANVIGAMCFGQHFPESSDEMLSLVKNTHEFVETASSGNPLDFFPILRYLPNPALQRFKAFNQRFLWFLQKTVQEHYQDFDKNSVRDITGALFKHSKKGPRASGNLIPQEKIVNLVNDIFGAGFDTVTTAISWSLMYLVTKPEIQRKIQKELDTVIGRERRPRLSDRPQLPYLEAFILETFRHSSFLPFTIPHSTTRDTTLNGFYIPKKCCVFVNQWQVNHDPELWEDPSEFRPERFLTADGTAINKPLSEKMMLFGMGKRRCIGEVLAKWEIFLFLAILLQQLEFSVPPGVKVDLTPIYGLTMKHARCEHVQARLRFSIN
T5 sequence (P11712 whole entry): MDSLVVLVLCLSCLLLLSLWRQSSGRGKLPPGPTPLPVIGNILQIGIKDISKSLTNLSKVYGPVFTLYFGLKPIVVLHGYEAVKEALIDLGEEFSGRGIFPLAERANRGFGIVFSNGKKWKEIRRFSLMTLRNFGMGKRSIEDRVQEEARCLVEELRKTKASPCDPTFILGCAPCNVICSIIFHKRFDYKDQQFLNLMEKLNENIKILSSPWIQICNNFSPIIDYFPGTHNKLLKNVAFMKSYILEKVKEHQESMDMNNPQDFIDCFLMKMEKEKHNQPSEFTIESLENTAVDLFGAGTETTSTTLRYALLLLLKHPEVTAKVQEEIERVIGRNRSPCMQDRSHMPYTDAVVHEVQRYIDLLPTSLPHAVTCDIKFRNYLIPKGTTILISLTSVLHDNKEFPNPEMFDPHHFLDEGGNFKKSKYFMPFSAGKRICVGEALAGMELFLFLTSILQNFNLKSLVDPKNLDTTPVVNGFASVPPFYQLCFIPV
T2 sequence (P20815 whole entry): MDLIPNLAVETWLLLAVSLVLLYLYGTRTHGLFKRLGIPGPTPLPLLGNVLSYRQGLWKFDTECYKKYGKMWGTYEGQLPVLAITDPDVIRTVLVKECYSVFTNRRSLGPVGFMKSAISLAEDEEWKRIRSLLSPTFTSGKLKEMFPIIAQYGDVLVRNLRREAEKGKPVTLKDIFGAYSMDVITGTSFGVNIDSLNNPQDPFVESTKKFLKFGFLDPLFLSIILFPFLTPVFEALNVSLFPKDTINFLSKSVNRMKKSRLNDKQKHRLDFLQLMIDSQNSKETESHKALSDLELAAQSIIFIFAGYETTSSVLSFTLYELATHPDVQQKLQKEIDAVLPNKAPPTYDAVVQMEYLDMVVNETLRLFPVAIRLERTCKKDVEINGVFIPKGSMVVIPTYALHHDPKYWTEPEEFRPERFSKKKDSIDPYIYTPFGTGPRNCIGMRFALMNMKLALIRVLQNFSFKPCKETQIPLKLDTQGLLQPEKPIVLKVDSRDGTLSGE
T4 sequence (P10632 whole entry): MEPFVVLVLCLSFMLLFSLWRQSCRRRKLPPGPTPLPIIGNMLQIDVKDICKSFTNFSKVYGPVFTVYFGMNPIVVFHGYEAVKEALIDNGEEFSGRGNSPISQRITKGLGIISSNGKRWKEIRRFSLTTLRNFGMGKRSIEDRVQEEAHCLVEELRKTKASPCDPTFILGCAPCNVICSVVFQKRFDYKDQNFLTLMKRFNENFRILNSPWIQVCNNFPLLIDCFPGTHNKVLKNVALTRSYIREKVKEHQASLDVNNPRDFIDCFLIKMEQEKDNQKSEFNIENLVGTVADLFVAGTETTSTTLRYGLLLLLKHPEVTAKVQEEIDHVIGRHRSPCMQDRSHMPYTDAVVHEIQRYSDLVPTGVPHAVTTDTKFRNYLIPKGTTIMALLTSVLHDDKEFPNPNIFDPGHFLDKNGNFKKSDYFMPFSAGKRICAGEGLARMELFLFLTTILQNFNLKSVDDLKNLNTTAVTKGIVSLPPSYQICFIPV
T1 sequence (P10635 whole entry): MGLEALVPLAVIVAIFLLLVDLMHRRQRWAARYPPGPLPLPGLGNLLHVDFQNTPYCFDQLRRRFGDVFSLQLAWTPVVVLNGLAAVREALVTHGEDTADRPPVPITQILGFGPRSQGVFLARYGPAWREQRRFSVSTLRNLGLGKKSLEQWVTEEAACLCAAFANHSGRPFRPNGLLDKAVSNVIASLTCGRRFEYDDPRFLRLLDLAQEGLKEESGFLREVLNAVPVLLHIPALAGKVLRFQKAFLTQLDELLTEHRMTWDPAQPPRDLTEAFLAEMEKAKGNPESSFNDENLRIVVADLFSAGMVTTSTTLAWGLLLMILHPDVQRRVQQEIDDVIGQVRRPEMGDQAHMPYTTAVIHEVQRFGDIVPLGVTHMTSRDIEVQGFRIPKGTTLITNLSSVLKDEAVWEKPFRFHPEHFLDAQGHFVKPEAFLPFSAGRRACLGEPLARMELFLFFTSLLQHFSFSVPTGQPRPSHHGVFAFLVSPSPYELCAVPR
T6 sequence (P33261 whole entry): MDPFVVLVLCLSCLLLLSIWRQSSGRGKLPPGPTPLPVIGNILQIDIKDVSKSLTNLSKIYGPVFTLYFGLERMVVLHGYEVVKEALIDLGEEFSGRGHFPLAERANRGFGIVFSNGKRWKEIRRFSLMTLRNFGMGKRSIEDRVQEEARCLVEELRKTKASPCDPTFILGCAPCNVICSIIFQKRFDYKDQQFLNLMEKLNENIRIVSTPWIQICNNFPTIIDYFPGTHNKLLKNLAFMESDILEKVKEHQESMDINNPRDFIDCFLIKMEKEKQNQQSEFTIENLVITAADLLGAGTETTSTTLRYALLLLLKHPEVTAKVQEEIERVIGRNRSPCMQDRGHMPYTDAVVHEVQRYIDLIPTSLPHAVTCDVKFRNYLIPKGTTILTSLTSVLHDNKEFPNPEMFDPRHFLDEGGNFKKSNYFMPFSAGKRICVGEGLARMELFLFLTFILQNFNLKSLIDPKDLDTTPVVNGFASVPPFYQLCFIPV

Regarding `CN1CCC(COc2cnc(-c3cccc(Cn4nc(-c5cccc(C#N)c5)ccc4=O)c3)nc2)CC1` [tepotinib, Tepotinib], the 50% inhibitory concentration (IC50) is above 50 µM in [1]; 38.8 µM in data set [2]; above 50 µM in [3]; 20.4 µM in [4]; 1.7 µM in data set [5]; 20 µM in [6]. Moreover, the IC50 in data set [8] was 16.9 µM; in data set [10], above 50 µM; in data set [11] (5 µM mitoxantrone, 1 h, read-out: IC50, relative mitoxantrone accumulation), 29.9 µM; in data set [11] (8 µM hoechst 33342, read-out: IC50, relative Hoechst 33342 accumulation), 15.8 µM. For the same compound, the IC50 at 48 h in [7] came out at 16.5 µM; in [12] it was 19.4 µM. For the same compound, in data set [9], the “Effect on CYP3A4 substrate midazolam” value was “failed to exert the effect”.
